Data from patent publication US20100144737A1, “METHODS FOR INHIBITING T HELPER CELL DIFFERENTIATION” (FibroGen, Inc., priority 2008, published 2010).

How the values were obtained:
[1] = test system: IL12Rβ2, IL18R1, and IL18RAP gene expression in T helper cells; test: IL-12-induced gene expression in T helper cells (quantitative RT-PCR); assay type: cell-based, human; conditions: TCR-stimulated T helper cells
Experimental: The effect of compounds and methods of the present invention on IL-12-induced gene expression in T helper cells was evaluated as follows. For these studies, analyses were performed to examine the effect of compounds of the present invention on expression of three genes induced by IL-12 in T helper cells: IL12Rβ2, IL18R1, and IL18RAP. (See, e.g., Saremeva et al. (2000) J hnmunol 165:1933-1938; Rogge et al. (1997) J Exp Med 185:825-831; and Nakahira et al. (2001) J Inmunol 167:1306-1312.)
Human cord blood naive T helper cells (AllCells LLC, Emeryville, Calif.) were stimulated (i.e., T cell receptor (TCR) stimulation) by seeding into 96-well culture dishes coated with 5 μg/ml anti-CD3 antibody (clone UCHT1, R&D Systems, Minneapolis, Minn.), and 5 μg/ml anti-CD28 antibody (clone ANC28.1/D10, Ancell Corporation, Bayport, Minn.), and cultured at 37° C., 5% CO2 in RPMI-1640 (Mediatech Inc., Herndon, Va.) containing 1% FBS, 1 U/ml penicillin-1 μg/ml streptomycin (Invitrogen Corporation, Carlsbad, California), and 50 U/ml IL-2 (Roche Diagnostics Corporation, Indianapolis, Ind.). At time of seeding, cells were cultured with media alone or with media containing 2 ng/ml IL-12 (R&D Systems, Minneapolis, Minn.) (to stimulate differentiation of the T helper cells into Th1 cells) and 10 μg/ml anti-IL-4 antibody (R&D Systems, Minneapolis, Minn.) (to block differentiation of the T helper cells into Th2 cells). Compound B or 1% DMSO (Veh) was added to the existing culture media and the cells cultured for an additional six days.
The cells were then lysed using Cell-to-Signal lysis buffer (Applied Biosystems, Foster City, Calif.) according to the manufacturer's instructions. The cell lysates were diluted with RNAse-free and DNAse-free water and used as templates in quantitative one-step duplex RT-PCR reactions using QuantiTect Multiplex RT-PCR Kit reagents (Qiagen Inc., Valencia, Calif.) and Taqman primers and probes (Applied Biosystems, Foster City, Calif.) as follows: IL18RAP Taqman primer/probe, catalog no. HS00187256M1; IL-12Rβ2 Taqman primer/probe, catalog no. HS00155486M1; EL18R1 Taqman primer/probe, catalog no. HS00175381M1; and TBET Taqman primer/probe, catalog no. HS00203436M1. RT-PCR reactions were performed according to the manufacturers' instructions. Changes in gene expression of IL12Rβ2, IL18R1, and IL18RAP following IL-12 addition in each sample were normalized relative to 18s ribosomal RNA gene expression measured in the same sample.

naïve T helper cells = test: Th1 cell differentiation: IFN-γ secretion after second and third TCR stimulation following washout; assay type: cell-based, human; conditions: another series, first TCR stimulation six days with IL-12, FIG. 8
Experimental: The effectiveness of compounds of the present invention at reducing Th1 differentiation was examined as follows. Th1 differentiation was induced by culturing anti-CD3 stimulated T cells in the presence of exogenous IL-12. Human cord blood naive T helper cells (AllCells LLC, Emeryville, Calif.) were stimulated (i.e., T cell receptor (TCR) stimulation) by seeding into 96-well culture dishes coated with 5 μg/ml anti-CD3 antibody (clone UCHT1, R&D Systems, Minneapolis, Minn.), and 5 μg/ml anti-CD28 antibody (clone ANC28.1/D10, Ancell Corporation, Bayport, Minn.), and cultured at 37° C., 5% CO2 in RPMI-1640 (Mediatech Inc., Hemdon, Va.) containing 1% FBS, 1 U/ml penicillin-1 μg/ml streptomycin (Invitrogen Corporation, Carlsbad, Calif.), and 50 U/ml IL-2 (Roche Diagnostics Corporation, Indianapolis, Ind.). At time of seeding, cells were cultured with media alone or with media containing 2 ng/ml IL-12 and 10 μg/ml anti-IL-4 to induce Th1 cell differentiation. […]
The cells were then collected, washed twice with RPMI-1640 media containing 1% FBS, and counted before equal numbers of cells per well were re-stimulated (second T cell receptor (TCR) stimulation following washout of all prior treatments) by re-seeding the cells into 96-well culture dishes coated with 5 μg/ml anti-CD3 antibody and 5 μg/ml anti-CD28 antibody. […] After 24 hours the conditioned media from the cells was collected and analyzed for IFN-γ levels using a MS2400 Tissue Culture Kit (MesoScale Technologies, Gaithersburg, Md.) according to the manufacturer's instructions.
Thirteen days after the second TCR stimulation described above, the cells were collected, washed twice with RPMI-1640 media containing 1% FBS, and counted before equal numbers of cells per well were stimulated a third time (third TCR stimulation) by re-seeding into 96-well culture dishes coated with 5 μg/ml anti-CD3 antibody and 5 μg/ml anti-CD28 antibody. […]
In another series of experiments, the effectiveness of compounds of the present invention at reducing Th1 differentiation was determined. […]

[2] = absence of IL-12, six days, normalized to 18s ribosomal RNA

SMILES: O=C(O)CNC(=O)c1ncc2cc(Oc3ccccc3)ccc2c1O [Compound B, [(4-Hydroxy-7-phenoxy-isoquinoline-3-carbonyl)-amino]-acetic acid]
- gene expression of IL12Rβ2 [1, 2]: decrease
- gene expression of IL18R1 [1, 2]: decrease
- gene expression of IL18RAP [1, 2]: decrease
- IL-12-mediated increase in IL12Rβ2 gene expression ([1]; presence of IL-12, six days): reduced
- IL-12-mediated increase in IL18R1 gene expression ([1]; presence of IL-12, six days): reduced
- IL-12-mediated increase in IL18RAP gene expression ([1]; presence of IL-12, six days): reduced

SMILES: Cc1ccc(Cl)c2cnc(C(=O)NCC(=O)O)c(O)c12 [Compound D, [(8-Chloro-4-hydroxy-5-methyl-isoquinoline-3-carbonyl)-amino]-acetic acid]
- IFN-γ secretion following the second TCR stimulation (naïve T helper cells): reduced IFN-γ secretion
